Data on four compounds can be found in US6933272B1 (priority 1998, dated 2005).

Test [1] has as its target T1, insulin receptor (Homo sapiens, UniProt P06213). The experiment in a line: 125I insulin binding to human placental plasma membranes (HPPM). As to conditions: human placental plasma membranes, 16 h at 4° C. Also noted: Human Placental Plasma Membranes—50 mM Hepes, pH 7.8 @ 4 C containing 100 U/mL Bacitracin; from tissue; host or cells: human placenta, plasma membranes. On the procedure: (§1) Tubes were mixed and incubated for 16 h at 4° C. After the incubation, the tubes were placed on ice and 300 μL of a 1:5 suspension of 0.4% bovine-γ-globulin in 20% polyethyleneglycol 6000 (BDH chemicals) was added to each tube, mixed thoroughly and left to incubate for 30 min on ice. The tubes were then centrifuged (3,000 g) for 30 min at 4° C., the supernatant was aspirated off and the pellet counted for radioactivity. […] Inhibition constants were estimated by graphical analysis of displacement plots or calculated using the curve fitting programs EBDA and/or LIGAND.
Target sequence in this assay (P06213 28-758 limits assumed): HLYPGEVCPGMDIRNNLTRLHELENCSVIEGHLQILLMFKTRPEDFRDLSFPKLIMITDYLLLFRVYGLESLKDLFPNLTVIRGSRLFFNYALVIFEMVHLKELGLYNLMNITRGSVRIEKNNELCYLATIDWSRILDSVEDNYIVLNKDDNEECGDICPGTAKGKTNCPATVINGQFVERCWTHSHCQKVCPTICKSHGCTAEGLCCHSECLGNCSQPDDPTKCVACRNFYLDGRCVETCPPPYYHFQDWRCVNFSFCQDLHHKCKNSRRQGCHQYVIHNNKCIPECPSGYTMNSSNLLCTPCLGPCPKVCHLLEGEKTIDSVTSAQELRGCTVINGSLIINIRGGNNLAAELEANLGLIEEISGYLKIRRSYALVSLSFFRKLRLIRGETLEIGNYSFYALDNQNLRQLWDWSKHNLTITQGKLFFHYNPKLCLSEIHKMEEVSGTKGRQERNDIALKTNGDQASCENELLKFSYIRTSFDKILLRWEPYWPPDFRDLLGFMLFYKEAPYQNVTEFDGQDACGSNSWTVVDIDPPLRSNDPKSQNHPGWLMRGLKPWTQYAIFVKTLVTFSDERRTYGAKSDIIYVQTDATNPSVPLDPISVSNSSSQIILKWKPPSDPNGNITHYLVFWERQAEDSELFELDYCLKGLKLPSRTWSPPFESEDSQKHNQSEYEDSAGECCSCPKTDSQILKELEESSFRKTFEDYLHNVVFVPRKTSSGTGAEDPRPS

For test [2], the target named is T1, insulin receptor. The experiment in a line: Assays of insulin action (several biological assays, classification agonist/antagonist).
Target sequence in this assay (P06213 with tags, fused parts or gaps): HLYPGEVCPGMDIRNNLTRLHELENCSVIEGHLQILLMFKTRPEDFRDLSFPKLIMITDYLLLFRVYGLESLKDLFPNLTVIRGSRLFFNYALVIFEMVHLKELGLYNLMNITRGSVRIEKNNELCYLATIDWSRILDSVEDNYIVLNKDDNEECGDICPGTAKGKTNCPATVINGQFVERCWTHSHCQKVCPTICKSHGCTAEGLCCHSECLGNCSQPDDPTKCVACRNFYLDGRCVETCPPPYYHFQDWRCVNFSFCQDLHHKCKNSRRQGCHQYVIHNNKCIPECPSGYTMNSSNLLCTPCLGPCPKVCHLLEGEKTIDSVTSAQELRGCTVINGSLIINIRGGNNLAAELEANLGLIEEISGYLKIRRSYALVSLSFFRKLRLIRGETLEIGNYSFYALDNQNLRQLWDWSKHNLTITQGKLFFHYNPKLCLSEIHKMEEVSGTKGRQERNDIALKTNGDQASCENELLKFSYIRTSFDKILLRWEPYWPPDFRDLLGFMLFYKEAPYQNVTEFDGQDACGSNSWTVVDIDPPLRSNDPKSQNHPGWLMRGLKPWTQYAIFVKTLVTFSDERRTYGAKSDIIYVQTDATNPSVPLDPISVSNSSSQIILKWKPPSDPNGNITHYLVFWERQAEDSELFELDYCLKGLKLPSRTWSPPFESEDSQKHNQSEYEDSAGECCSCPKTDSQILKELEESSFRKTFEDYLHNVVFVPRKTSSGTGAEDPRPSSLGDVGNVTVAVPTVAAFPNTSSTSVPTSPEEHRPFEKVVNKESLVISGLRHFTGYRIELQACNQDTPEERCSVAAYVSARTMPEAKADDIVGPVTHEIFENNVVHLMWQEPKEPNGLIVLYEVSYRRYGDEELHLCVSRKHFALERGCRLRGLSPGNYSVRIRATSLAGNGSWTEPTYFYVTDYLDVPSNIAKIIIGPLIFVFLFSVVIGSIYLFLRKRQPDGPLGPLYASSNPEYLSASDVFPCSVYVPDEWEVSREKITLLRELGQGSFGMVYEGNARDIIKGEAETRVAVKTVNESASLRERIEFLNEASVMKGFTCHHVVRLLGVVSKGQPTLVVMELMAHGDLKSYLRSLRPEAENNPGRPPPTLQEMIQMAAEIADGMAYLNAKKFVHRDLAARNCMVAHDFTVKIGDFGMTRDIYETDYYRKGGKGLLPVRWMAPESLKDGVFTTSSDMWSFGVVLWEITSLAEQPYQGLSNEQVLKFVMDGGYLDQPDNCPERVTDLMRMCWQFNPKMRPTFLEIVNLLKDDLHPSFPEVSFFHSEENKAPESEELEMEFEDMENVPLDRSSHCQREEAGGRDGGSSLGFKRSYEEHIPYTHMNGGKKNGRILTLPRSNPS
Test [3] addresses insulin receptor β-subunit associated tyrosine kinase activity (Homo sapiens, UniProt P06213). The experiment in a line: Protein tyrosine kinase (PTK) assay, 32P incorporation into FYF peptide. In kind it is biochemical. As to the method:
Protein tyrosine kinase activity was determined using a modification of the method of N. Konstantopoulos (22).
The reaction was allowed to proceed for 20 minutes at 30° C. before it was terminated by the addition of 12.5 μL of 7.5 M guanidine hydrochloride. An aliquot (10 μL) of the reaction mixture was then spotted onto a Whatman 81 phosphocellulose paper (15 mm×15 mm), washed three times (2 min per wash) in about 50 mL of 30% acetic acid, 0.05% orthophosphoric acid then finally, with one wash in about 200 mL of water. The papers were then rinsed briefly (15 sec) in 95% ethanol, dried, suspended in 2.5 mL of scintillation fluid (Beckman) and counted for radioactivity in a Beckman β-counter.

The test system of the next test is 3T3L1 adipocyte cells. The experiment in a line: Glucose transport (3H-deoxyglucose uptake) in 3T3L1 adipocyte cells. In kind it is cell-based, mouse. As to conditions: for effect of compound alone on glucose transport: basal, no insulin. As to the method: Glucose transport was determined using a modification of the method of S. J. Isakoff et at. (23). The assay involved measuring the effect of compounds on the uptake of ^3H-deoxyglucose into 3T3L1 adipocyte cells.
The cell line, 3T3-L1, derived from mouse embryo fibroblasts, was grown in 250 mL tissue culture flasks containing 15 mL medium made up of DMEM (Dulbecco's modified Eagle's medium containing glutamine, 2 mM; sodium bicarbonate, 30 mM; penicillin 71.5 mg/litre; streptomycin, 152.5 mg/litre) supplemented with 10% foetal calf serum (FCS), pH 7.4. Cells were maintained in a humidified incubator at 37° C. in a 5% CO2 environment. The medium was changed every 3 days and the cells were split when they were about 70-80% confluent.
3T3-L1 fibroblast cells from one tissue culture flask were suspended in 50 mL of DMEM media containing 10% FCS and 0.5 mL of this suspension were seeded into each well of two 48-well tissue culture plates. The differentiation of the cells was initiated when the fibroblast cells were fully confluent. Routinely, differentiation was induced on cells that had been growing in tissue culture plates for 4-5 days. […] The cells were subsequently maintained with DMEM medium containing 10% FCS.
One day prior to the glucose transport assay, cell medium was replaced with DMEM containing 10% charcoal-treated foetal calf serum (CTFCS). On the day of the assay, the medium was aspirated and each well was washed with 1 mL of 25 mM Hepes, pH 7.4 containing 0.9% NaCl (NaCl-HEPES). […] Ten microlitres of NaCl-HEPES containing 3 mM 2-deoxy-D-glucose and 0.1 μCi 2-deoxy-D-[1-^3H]glucose were then added. Following a 10 min incubation at 37° C., the medium was aspirated off and the wells rapidly washed three times with 1 mL of ice-cold 50 mM phosphate, pH 7.5 containing 150 mM NaCl (PBS) and 10 mM glucose. Two hundred microlitres of 3% Triton X-100 was then added to each well and left to incubate for a minimum of 10 minutes. One hundred microlitres of the solubilised cells was then added to 2.5 mL of liquid scintillation fluid and counted for radioactivity in a Beckman β-counter.

Test [4] has as its target T2, insulin receptor β-subunit (Homo sapiens, UniProt P06213).
T2 construct: expressed in transfected cells
The experiment in a line: Insulin receptor autophosphorylation (32P into 90 kDa band). In kind it is biochemical. On the procedure: After this preincubation, 2.5 μL of 1 mM ATP, 100 mM sodium orthovanadate and 5 μCi of [γ-^32P]ATP were added and incubated at room temperature for 25 minutes. The reaction was terminated by the addition of 1.5 μL of 0.5 M EDTA and 3.5 μL of 1.5 M NaCl. The solution was then either solubilised and resolved by SDS-PAGE or immunoprecipitated using anti-insulin Rβ (29B4) mouse monoclonal IgG or anti-phosphotyrosine (PY20) mouse monoclonal IgG (Santa Cruz Biotechnology Inc., USA), solubilised and then resolved by SDS-PAGE. Immunoprecipitation was performed by incubating one microgram of antibody with the reaction mixture over night at 4° C. […] The receptor-antibody-Sepharose complex was separated from the supernatant by centrifugation at 7,500 g for 5 minutes. The pellet was washed three times in TBS containing 0.1% Triton X-100 and 10 μL of 0.1 M glycine, pH 3.3 was added. The solution was then solubilised by incubation for 5 minutes at 100° C. in 10 μL of 80 mM Tris-HCl, pH 6.8 containing 0.45 M DTT, 56 mM EDTA, 30% sucrose and 6% SDS. Following centrifugation for 5 minutes at 7,500 g, the supernatant was resolved on a 7.5% SDS polyacrylamide gel. […] In some instances, gel bands corresponding to 90 kDa were excised and the associated radioactivity was measured by suspending the gel band in 2.5 mL of Scintillation fluid (Beckman) using a Beckman β-counter.

The subject of a further test is NIH 3T3 HIR3.5 cells. The note with it: read-out: half maximal insulin concentration for stimulation of 3H-deoxyglucose; cited from earlier work.
Test [5] relates to IGF-1 receptor. The experiment in a line: 125I IGF-1 binding to human placental plasma membranes (HPPM). The note with it: same source of receptors (HPPM).
Test [6] has as its target T3, IGF-1 receptor (Homo sapiens, UniProt P08069). The description is as above. The note with it: HPPM. Also noted: from tissue; host or cells: human placenta, plasma membranes.
The target of test [7] is T1, insulin receptor. The experiment in a line: 125I insulin binding to wheat germ agglutinin purified insulin receptors (WGA.IR). Also on record: host or cells: several: placental membranes, CHO.T11 cells, WGA purified receptors. As to conditions: LIGAND 1-site fit. On the procedure:
as §1
Target sequence in this assay (P06213 28-758 limits assumed): as the sequence (P06213 28-758 limits assumed) above

The target of test [8] is T3, IGF-1 receptor. The experiment in a line: Phosphorylation of immunoprecipitated IGF-1 receptors. It counts as biochemical. The note with it: immunoprecipitated IGF-1 receptors free of insulin receptors.

Usually IC50 stands for the concentration that inhibits the measured activity by half.

Like-named read-outs stand apart in the source and are kept apart here.

T3 sequence (P08069 31-736 limits assumed): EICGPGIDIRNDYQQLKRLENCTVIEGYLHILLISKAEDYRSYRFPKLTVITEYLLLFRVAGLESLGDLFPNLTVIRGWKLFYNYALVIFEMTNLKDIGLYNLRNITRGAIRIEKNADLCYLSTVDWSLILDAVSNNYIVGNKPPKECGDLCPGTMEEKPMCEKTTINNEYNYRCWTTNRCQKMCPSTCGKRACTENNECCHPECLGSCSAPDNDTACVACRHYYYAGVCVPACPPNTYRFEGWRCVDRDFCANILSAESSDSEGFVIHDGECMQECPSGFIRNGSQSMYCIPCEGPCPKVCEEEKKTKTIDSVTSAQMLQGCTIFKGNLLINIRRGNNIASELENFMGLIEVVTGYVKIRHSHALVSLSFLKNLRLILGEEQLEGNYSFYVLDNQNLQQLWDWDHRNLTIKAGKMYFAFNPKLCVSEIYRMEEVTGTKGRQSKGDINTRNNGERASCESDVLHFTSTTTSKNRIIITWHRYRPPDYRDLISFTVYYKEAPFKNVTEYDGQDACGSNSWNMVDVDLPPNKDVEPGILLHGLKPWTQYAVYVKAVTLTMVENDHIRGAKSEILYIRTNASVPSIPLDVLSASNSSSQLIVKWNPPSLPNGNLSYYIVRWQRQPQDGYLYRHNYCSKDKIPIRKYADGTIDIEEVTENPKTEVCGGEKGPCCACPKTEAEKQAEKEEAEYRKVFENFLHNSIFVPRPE
T2 sequence (P06213 28-758): as the sequence (P06213 28-758 limits assumed) above
T2 sequence (P06213 763-1382): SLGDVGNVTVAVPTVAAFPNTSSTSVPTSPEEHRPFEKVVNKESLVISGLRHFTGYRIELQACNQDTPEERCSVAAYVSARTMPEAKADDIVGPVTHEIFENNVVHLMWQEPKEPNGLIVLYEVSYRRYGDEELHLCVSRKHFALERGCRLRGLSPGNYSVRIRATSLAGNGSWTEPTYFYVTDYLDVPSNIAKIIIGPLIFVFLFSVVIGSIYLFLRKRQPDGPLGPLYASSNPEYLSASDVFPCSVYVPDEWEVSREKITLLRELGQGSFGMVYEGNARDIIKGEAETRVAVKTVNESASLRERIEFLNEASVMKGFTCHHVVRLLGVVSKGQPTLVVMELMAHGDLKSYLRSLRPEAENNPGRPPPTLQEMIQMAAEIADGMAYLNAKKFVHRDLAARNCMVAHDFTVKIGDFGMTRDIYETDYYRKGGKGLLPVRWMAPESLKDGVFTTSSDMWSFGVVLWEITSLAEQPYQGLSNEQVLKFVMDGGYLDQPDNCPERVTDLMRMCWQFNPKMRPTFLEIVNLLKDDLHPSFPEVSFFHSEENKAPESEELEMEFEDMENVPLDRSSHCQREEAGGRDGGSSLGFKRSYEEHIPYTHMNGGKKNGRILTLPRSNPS
Sequence of insulin receptor β-subunit associated tyrosine kinase activity (P06213 28-758 limits assumed): as the sequence (P06213 28-758 limits assumed) above

In the case of “3,4-dihydro-7-[[6-(4-methoxyphenyl)hexenyl]oxy]-8-propyl-2H-1-benzopyran-2-carboxylic acid [IM 172]”, the Ki on insulin receptor [1] (read-out: apparent Ki (inhibition constant), competition for 125I insulin binding) is 218 µM; in test [3] (inhibition of insulin stimulation, read-out: estimated inhibition constant, PTK assay), 80 µM; in the test with 3T3L1 adipocyte cells (3T3L1 cells, 2 nM insulin, read-out: estimated inhibition constant (Ki), glucose transport assay), 80 µM. The “classification of insulin action” value at insulin receptor [2] is recorded as “antagonists of insulin action”. In [3] (basal, absence of insulin), the “effect of compound alone on 32P incorporation into FYF peptide” value is “does not increase ^32P incorporation into FYF peptide”. For the same compound, the “effect of compound alone on glucose transport” value with 3T3L1 adipocyte cells is “does not activate glucose transport in 3T3L1 cells”. In addition, in [4] (basal), the “effect on 32P incorporation into insulin receptor β-subunit” value is “does not increase ^32P incorporation into FYF peptide or the insulin receptor β-subunit”.
Consider “insulin: peptidyl ligand; the most important regulatory hormone involved in maintaining glucose homeostasis”, for which, in the test with NIH 3T3 HIR3.5 cells, the EC50 was 0.0001 µM.
Turning to `CCCc1c(OCCCOc2ccc(C(C)=O)c(OC)c2CCC)ccc2c1OC(C(=O)O)CC2` (stereo not shown) [IM 129, 7-[3-(4-acetyl-3-methoxy-2-propylphenoxy)propoxy]-3,4-dihydro-8-propyl-2H-1-benzopyran-2-carboxylic acid], in the test on IGF-1 receptor [5], the “apparent Ki for 125I IGF-1 binding relative to Ki for 125I insulin binding” value is reported as “approximately two fold higher”. The Ki at IGF-1 receptor [6] (read-out: apparent Ki, displacement of 125I IGF-1 binding) was 800 to 1300 µM; at insulin receptor [1] it was 320 to 550 µM; at insulin receptor [7], 189 µM. Moreover, at insulin receptor [2], the “classification of insulin action” value is recorded as “antagonists of insulin action”. Further, the IC50 on insulin receptor [2] (PTK and glucose transport (FIGS. 8 and 9), read-out: apparent IC50 in several biological assays) was in the range of 30 to 200 µM.
In the case of `Cc1ccc(C(=O)Nc2ccc(S(=O)(=O)O)c3cc(S(=O)(=O)O)cc(S(=O)(=O)O)c23)cc1NC(=O)c1cccc(NC(=O)Nc2cccc(C(=O)Nc3cc(C(=O)Nc4ccc(S(=O)(=O)O)c5cc(S(=O)(=O)O)cc(S(=O)(=O)O)c45)ccc3C)c2)c1` [IM 175, 8,8′-[Carbonylbis[imino-3,1-phenylenecarbonylimino(4-methyl-3,1-phenylene)carbonylimino]]bis-1,3,5-naphthalenetrisulfonic acid], the Ki on IGF-1 receptor [6] (read-out: Ki, competition for 125I IGF-1 binding) was 9 µM; on insulin receptor [1], 46 to 48 µM. For the same compound, at insulin receptor [2], the “classification of insulin action” value is on record as “agonists of insulin action”. Further, the EC50 in the test on 3T3L1 adipocyte cells (Mus musculus, 3T3-L1, compound alone, read-out: apparent EC50, stimulation of glucose transport) is about 250 µM. Besides, the “effect of compound alone on glucose transport” value in the test on 3T3L1 adipocyte cells is on record as “levels approaching maximal stimulation by insulin”. The “autophosphorylation of insulin receptor β-subunits, efficacy relative to insulin” value in test [4] (relative to 100 nM dose of insulin, immunoprecipitated insulin receptors) is given as “about 65%”. For the same compound, the “effect on IGF-1 receptor phosphorylation” value at IGF-1 receptor [8] is “can also stimulate the IGF-1 receptor”; on IGF-1 receptor [8] (listed as IM175) it was “lower potency on IGF-1 receptors than it does on insulin receptors”.
